Laboratory results from ChEMBL document CHEMBL5370624 (J Med Chem, 2023).
Activity calls are given as the source filed them. No cut-off for these calls is given here.

Columns and labels:
PBMC = assay: Cytotoxicity against human PBMC cells assessed as reduction in cell viability upto 10 ug/ml incubated for 18 to 24 hrs by PrestoBlue reagent based assay; assay type: toxicity; details: time 18-24 hrs, dose < 10 µg/ml
Toll-like receptor 4 [1] = molecular target: T1, Toll-like receptor 4 (Homo sapiens, UniProt O00206); assay: Agonist activity at human TLR4 in human HEK-Blue hTLR4 cells assessed as NF-kappaB activation incubated for 48 hrs by SEAP reporter gene based Quanti-blue assay; assay type: cell-based
T1 sequence (O00206 whole entry): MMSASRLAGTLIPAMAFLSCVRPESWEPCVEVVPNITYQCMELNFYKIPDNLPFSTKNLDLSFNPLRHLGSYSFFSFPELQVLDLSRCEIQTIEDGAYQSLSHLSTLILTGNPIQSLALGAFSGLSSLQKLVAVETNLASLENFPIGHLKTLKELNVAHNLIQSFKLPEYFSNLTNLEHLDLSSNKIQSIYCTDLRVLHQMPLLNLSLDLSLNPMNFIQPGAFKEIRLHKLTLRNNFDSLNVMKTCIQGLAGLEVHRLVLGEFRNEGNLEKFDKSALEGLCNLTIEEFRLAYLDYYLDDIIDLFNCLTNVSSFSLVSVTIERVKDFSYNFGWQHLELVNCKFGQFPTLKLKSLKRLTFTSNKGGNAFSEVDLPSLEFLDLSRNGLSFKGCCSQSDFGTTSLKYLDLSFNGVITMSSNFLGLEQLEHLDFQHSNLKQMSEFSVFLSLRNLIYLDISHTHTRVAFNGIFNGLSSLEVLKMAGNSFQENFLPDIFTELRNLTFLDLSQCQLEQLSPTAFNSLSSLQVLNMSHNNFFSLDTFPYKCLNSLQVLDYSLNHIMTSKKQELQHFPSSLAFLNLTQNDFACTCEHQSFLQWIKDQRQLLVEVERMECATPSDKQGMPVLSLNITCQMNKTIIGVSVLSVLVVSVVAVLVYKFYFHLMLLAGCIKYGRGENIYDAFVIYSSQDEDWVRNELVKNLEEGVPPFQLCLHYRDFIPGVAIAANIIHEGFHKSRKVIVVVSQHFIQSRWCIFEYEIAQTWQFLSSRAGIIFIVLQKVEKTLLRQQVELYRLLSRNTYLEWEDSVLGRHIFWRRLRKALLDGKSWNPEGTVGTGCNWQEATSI

Toll-like receptor 4 [2] = molecular target: T2, Toll-like receptor 4 (Mus musculus, UniProt Q9QUK6); assay: Agonist activity at TLR4 in mouse RAW264.7 cells assessed as induction of MIP-1beta release incubated for 24 hrs by ELISA; assay type: cell-based
T2 sequence (Q9QUK6 whole entry): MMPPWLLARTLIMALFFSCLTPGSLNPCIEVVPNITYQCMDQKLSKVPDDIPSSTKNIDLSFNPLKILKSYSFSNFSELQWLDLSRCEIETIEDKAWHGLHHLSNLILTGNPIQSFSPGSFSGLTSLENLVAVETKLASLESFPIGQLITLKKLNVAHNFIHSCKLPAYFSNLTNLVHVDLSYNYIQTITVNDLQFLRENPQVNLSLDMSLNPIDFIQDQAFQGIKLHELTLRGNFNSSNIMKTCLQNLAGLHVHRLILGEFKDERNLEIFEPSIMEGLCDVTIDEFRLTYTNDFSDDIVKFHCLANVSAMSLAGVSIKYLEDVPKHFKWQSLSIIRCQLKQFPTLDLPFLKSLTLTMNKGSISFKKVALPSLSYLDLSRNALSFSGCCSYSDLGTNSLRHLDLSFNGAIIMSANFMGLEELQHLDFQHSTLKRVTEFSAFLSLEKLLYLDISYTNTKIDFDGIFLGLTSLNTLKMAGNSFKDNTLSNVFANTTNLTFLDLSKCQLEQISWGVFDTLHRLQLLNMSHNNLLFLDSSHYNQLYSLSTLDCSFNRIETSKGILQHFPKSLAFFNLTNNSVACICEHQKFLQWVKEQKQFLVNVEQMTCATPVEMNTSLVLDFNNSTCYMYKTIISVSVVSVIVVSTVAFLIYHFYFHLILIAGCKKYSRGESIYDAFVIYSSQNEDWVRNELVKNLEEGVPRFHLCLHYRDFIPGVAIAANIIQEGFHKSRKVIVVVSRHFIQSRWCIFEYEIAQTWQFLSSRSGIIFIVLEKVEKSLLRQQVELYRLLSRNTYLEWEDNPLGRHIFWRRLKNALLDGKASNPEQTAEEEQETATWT

[3] = Aqueous stability of the compound assessed as drug degradation at 2 to 8 degreeC and measured upto 12 months by RP-HPLC analysis; assay type: physicochemical; details: buffer, 8760 h
[4] = Aqueous stability of the compound assessed as drug degradation at 2 to 8 degreeC and measured upto 12 months by LC-MS analysis; assay type: physicochemical; details: buffer, 8760 h
[5] = Aqueous stability of the compound assessed as drug degradation at 40 degreeC and measured upto 12 months by LC-MS analysis; assay type: physicochemical; details: for Stability: buffer, 8760 h
Toll-like receptor 4 [6] = molecular target: T2, Toll-like receptor 4; assay: Agonist activity at mouse TLR4 in human HEK-Blue mTLR4 cells assessed as NF-kappaB activation incubated for 48 hrs by SEAP reporter gene based Quanti-blue assay; assay type: cell-based
Toll-like receptor 4 [7] = molecular target: T1, Toll-like receptor 4; assay: Agonist activity at TLR4 in human MONO-MAC-6 cells assessed as induction of MIP-1beta release incubated for 24 hrs by ELISA; assay type: cell-based
Toll-like receptor 4 [8] = molecular target: T1, Toll-like receptor 4; assay: Agonist activity at TLR4 in human PBMC cells assessed as induction of MIP-1beta release incubated for 20 hrs by ELISA; assay type: cell-based
Toll-like receptor 4 [9] = molecular target: T1, Toll-like receptor 4; assay: Agonist activity at TLR4 in human PBMC cells assessed as induction of TNFalpha release incubated for 20 hrs by ELISA; assay type: cell-based
Toll-like receptor 4 [10] = molecular target: T1, Toll-like receptor 4; assay: Agonist activity at TLR4 in human PBMC cells assessed as induction of IL-1beta release incubated for 20 hrs by ELISA; assay type: cell-based
Toll-like receptor 4 [11] = molecular target: T1, Toll-like receptor 4; assay: Agonist activity at TLR4 in human PBMC cells assessed as induction of RANTES release incubated for 20 hrs by ELISA; assay type: cell-based
Mus musculus [12] = species on record: Mus musculus; assay: Immuno-adjuvant activity in H3N2-split A/Victoria/210/2009 influenza virus-immunized BALB/c mouse model assessed as increase in influenza specific serum IgG titer level at 0.001 to 0.1 ug,IM and measured after 14 days by ELISA; assay type: functional, organism-based; details: dose 0.001-0.1 µg, time 14.0 day
Mus musculus [13] = species on record: Mus musculus; assay: Immuno-adjuvant activity in H3N2-split A/Victoria/210/2009 influenza virus-immunized BALB/c mouse model assessed as increase in influenza specific serum IgG1 titer level at 0.001 to 0.1 ug,IM and measured after 14 days by ELISA; assay type: functional, organism-based; details: dose 0.001-0.1 µg, time 14.0 day
Mus musculus [14] = species on record: Mus musculus; assay: Immuno-adjuvant activity in H3N2-split A/Victoria/210/2009 influenza virus-immunized BALB/c mouse model assessed as increase in influenza specific serum IgG2a titer level at 0.001 to 0.1 ug,IM and measured after 14 days by ELISA; assay type: functional, organism-based; details: dose 0.001-0.1 µg, time 14.0 day
Mus musculus [15] = assay: Immuno-adjuvant activity in H3N2-split A/Victoria/210/2009 influenza virus-immunized BALB/c mouse model assessed as increase in influenza specific serum IgG titer level at 0.001 to 0.1 ug,IM administered on day 0 and 14 and measured after 28 days by ELISA; assay type: functional, organism-based; details: dose 0.001-0.1 µg, time 28.0 day
Mus musculus [16] = assay: Immuno-adjuvant activity in H3N2-split A/Victoria/210/2009 influenza virus-immunized BALB/c mouse model assessed as increase in influenza specific serum IgG1 titer level at 0.001 to 0.1 ug,IM administered on day 0 and 14 and measured after 28 days by ELISA; assay type: functional, organism-based; details: dose 0.001-0.1 µg, time 28.0 day
Mus musculus [17] = assay: Immuno-adjuvant activity in H3N2-split A/Victoria/210/2009 influenza virus-immunized BALB/c mouse model assessed as increase in influenza specific serum IgG2a titer level at 0.001 to 0.1 ug,IM administered on day 0 and 14 and measured after 28 days by ELISA; assay type: functional, organism-based; details: dose 0.001-0.1 µg, time 28.0 day
[18] = Toxicity in H3N2-split A/Victoria/210/2009 influenza virus-immunized BALB/c mouse model assessed as abnormality at 0.001 to 0.1 ug,IM administered on day 0 and 14 and measured after 28 days; details: in vivo, 672 h, dose 0.001-0.1 µg, time 28 day
[19] = Toxicity in H3N2-split A/Victoria/210/2009 influenza virus-immunized BALB/c mouse model assessed as reactogenicity at 0.001 to 0.1 ug,IM administered on day 0 and 14 and measured after 28 days; details: in vivo, 672 h, dose 0.001-0.1 µg, time 28 day
Mus musculus [20] = assay: Immuno-adjuvant activity in H3N2-A/HK/68 influenza virus-immunized BALB/c mouse model assessed as increase in survival rate at 10 ug,INH administered 48hrs prior to influenza challenge and measured after 18 days; assay type: functional; details: dose 10 µg, time 18 day
Mus musculus [21] = assay: Immuno-adjuvant activity in H3N2-A/HK/68 influenza virus-immunized BALB/c mouse model assessed as increase in survival rate at 1 ug,INH administered 48hrs prior to influenza challenge and measured after 18 days; assay type: functional; details: dose 1 µg, time 18 day
[22] = Toxicity in H3N2-A/HK/68 influenza virus-immunized BALB/c mouse model assessed as body weight change at 1 to 10 ug,INH administered 48hrs prior to influenza challenge and measured after 18 days; details: in vivo, inhaled_or_intranasal, 432 h, dose 1-10 µg, time 18 day
[23] = Toxicity in H3N2-A/HK/68 influenza virus-immunized BALB/c mouse model assessed as disease index at 1 to 10 ug,INH administered 48hrs prior to influenza challenge and measured after 18 days; details: in vivo, inhaled_or_intranasal, 432 h, dose 1-10 µg, time 18 day
[24] = Toxicity in H3N2-A/HK/68 influenza virus-immunized BALB/c mouse model assessed as change in body temperature at 1 to 10 ug,INH administered 48hrs prior to influenza challenge and measured after 18 days; details: in vivo, inhaled_or_intranasal, 432 h, dose 1-10 µg, time 18 day
[25] = Aqueous stability of the compound assessed as drug degradation at 40 degreeC and measured after 12 months by RP-HPLC analysis; assay type: physicochemical; details: aqueous solution, read-out: Drug degradation
[26] = Aqueous stability of the compound assessed as drug degradation at 2 to 8 degreeC and measured after 1 month by LC-MS analysis; assay type: physicochemical; details: buffer, 730 h; time 1 months

SMILES | Activity (PBMC) | EC50 (Toll-like receptor 4 [1]) | EC50 (Toll-like receptor 4 [2]) | Stability [3] | Stability [4] | Stability [5] | EC50 (Toll-like receptor 4 [6]) | EC50 (Toll-like receptor 4 [7]) | EC50 (Toll-like receptor 4 [8]) | EC50 (Toll-like receptor 4 [9]) | EC50 (Toll-like receptor 4 [10]) | EC50 (Toll-like receptor 4 [11]) | Activity (Mus musculus [12]) | Activity (Mus musculus [13]) | Activity (Mus musculus [14]) | Activity (Mus musculus [15]) | Activity (Mus musculus [16]) | Activity (Mus musculus [17]) | Activity [18] | Activity [19] | also measured
CCCCCCCCCCC[C@H](CC(=O)N[C@H]1[C@H](OC[C@H](NC(=O)C[C@@H](CCCCCCCCCCC)OC(=O)CCCCCCCCC)C(=O)O)O[C@H](CO)[C@@H](OP(=O)(O)O)[C@@H]1OC(=O)C[C@@H](CCCCCCCCCCC)OC(=O)CCCCCCCCC)OC(=O)CCCCCCCCC | Non-Toxic | – | – | – | – | – | – | – | – | – | – | – | – | – | – | – | – | – | – | – | –
CCCCCCCCCCC[C@H](CC(=O)N[C@H]1[C@H](OC[C@H](NC(=O)C[C@@H](CCCCCCCCCCC)OCCCCCCCCCC)C(=O)O)O[C@H](CO)[C@@H](OP(=O)(O)O)[C@H]1NC(=O)C[C@@H](CCCCCCCCCCC)OCCCCCCCCCC)OCCCCCCCCCC.CCN(CC)CC | Non-Toxic | 7.86 nM | 0.02 nM | Stable | Stable | Stable | 0.15 nM | 0.38 nM | 0.13 nM | 2.6 nM | 0.28 nM | 0.14 nM | Dose-Dependent Effect | Dose-Dependent Effect | Dose-Dependent Effect | Active | Active | Active | Non-Toxic | Non-Toxic | Survival (Mus musculus [20]): 80%; Survival (Mus musculus [21]): 40%; Activity [22]: Non-Toxic; Activity [23]: Non-Toxic; Activity [24]: Non-Toxic
CCCCCCCCCCC[C@H](CC(=O)NCCO[C@@H]1O[C@H](CO)[C@@H](OS(=O)(=O)O)[C@@H](NC(=O)C[C@@H](CCCCCCCCCCC)OC(=O)CCCCCCCCC)[C@H]1NC(=O)C[C@@H](CCCCCCCCCCC)OC(=O)CCCCCCCCC)OC(=O)CCCCCCCCC.CCN(CC)CC | – | 449 nM | 0.31 nM | Stable | Stable | – | 2.64 nM | 39.5 nM | 2.87 nM | 116 nM | 20.4 nM | 7.01 nM | Dose-Dependent Effect | Dose-Dependent Effect | Dose-Dependent Effect | Active | Active | Active | Non-Toxic | Non-Toxic | degraded at 8760 h [25]: < 10%; degraded at 8760 h ([5]; aqueous solution, read-out: Drug degradation): 8%
CCCCCCCCCCC[C@H](CC(=O)NCCO[C@@H]1O[C@H](CO)[C@@H](OP(=O)(O)O)[C@H](OC(=O)C[C@@H](CCCCCCCCCCC)OC(=O)CCCCCCCCC)[C@H]1NC(=O)C[C@@H](CCCCCCCCCCC)OC(=O)CCCCCCCCC)OC(=O)CCCCCCCCC | – | 173 nM | 0.48 nM | – | – | – | 0.43 nM | 6.75 nM | 1.94 nM | 53.7 nM | 2.62 nM | 1.26 nM | – | – | – | – | – | – | – | – | Stability [26]: Stable
CCCCCCCCCCC[C@H](CC(=O)N[C@H]1[C@H](OC[C@H](NC(=O)C[C@@H](CCCCCCCCCCC)OCCCCCCCCCC)C(=O)O)O[C@H](CO)[C@@H](OS(=O)(=O)O)[C@H]1NC(=O)C[C@@H](CCCCCCCCCCC)OCCCCCCCCCC)OCCCCCCCCCC.CCN(CC)CC | – | 26.3 nM | 0.04 nM | Stable | Stable | Stable | 0.68 nM | 0.65 nM | 0.24 nM | 6.88 nM | 0.97 nM | 0.46 nM | Dose-Dependent Effect | Dose-Dependent Effect | – | Active | Active | Active | Non-Toxic | Non-Toxic | –
